Results on eleven molecules are retold here after PubChem BioAssay (NCI).

Each structure is given as a SMILES string.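 Protocol summary: plate cells (96-well), add compound at 5 concentrations, incubate 48 h, interpolate endpoints linearly. Abbreviation: GI50, concentration required for 50% inhibition of growth. TGI: concentration producing complete growth inhibition.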

What all share (experiment): NCI anticancer screen, dose series, 48 h
Experiment [1] concerns CCRF-CEM leukemia.
For experiment [2], the system named is EKVX NSCLC.
The subject of experiment [3] is K-562 leukemia.
Experiment [4] has as its system M14 melanoma.
Experiment [5] relates to NCI-H460 lung.
Experiment [6] deals with SNB-75 CNS.
Experiment [7] concerns UO-31 renal.
Experiment [8] has as its system A549 NSCLC.
Experiment [9] deals with HCT-116 colon.
Experiment [10] deals with IGROV1 ovarian.

With `COc1cc2nc(Nc3cccc(F)c3)nc(Nc3cc(C)[nH]n3)c2cc1OC`, the GI50 in [1] is 1.11 µM; in [2], 1.75 µM; in experiment [3], 1.36 µM; in experiment [4] it was 1.64 µM; in experiment [5], 1.83 µM; in [6], 1.52 µM. Also, the GI50 in experiment [7] was 1.77 µM. The TGI in experiment [1] is above 100 µM; in [2] it was 3.41 µM; in experiment [3], 4.94 µM; in experiment [4] it was 3.22 µM; in experiment [5] it was 3.74 µM; in experiment [6], 2.95 µM. The molecule further gave a TGI in experiment [7] of 3.29 µM.

Turning to `O=C(Nc1nc2ncn(CC(COc3ccccc3)OC(=O)c3ccccc3)c2c(=O)[nH]1)c1ccccc1` (stereo not given), the TGI in [8], in experiment [2], in experiment [9], in experiment [10], in experiment [3] and in [4] was above 100 µM throughout. Moreover, the TGI in [6] and in [7] was above 100 µM in each case.

Take `Cc1ccc(C)c(NC(=O)CC/C(=N\NC(=O)C(N)=O)C(C)C(=O)c2ccc(O)cc2)c1` (stereo not given): the TGI in [8], in [1], in [2], in experiment [9], in experiment [10] and in experiment [3] was above 100 µM each time. Also, the TGI in [4], in experiment [5] and in experiment [7] was above 100 µM each time.

With `C[C@@H]1C=C2C(=O)O[C@@H]3CC[C@H](C1)[C@]23O`, the GI50 in [8] was 12.7 µM; in experiment [1] it was 2.66 µM; in [9], 3.13 µM; in experiment [10], 2.87 µM; in experiment [3], 2.7 µM; in experiment [4], 4.28 µM. In addition, the values for the GI50 in experiment [6] and in experiment [7] were 3.33 µM and 3.74 µM, respectively. Also, the TGI in [8] is 47 µM; in experiment [1] it was 11.5 µM; in experiment [9] it was 13.8 µM; in experiment [10], 10.4 µM; in experiment [3] it was 34.6 µM; in experiment [4], 22.8 µM. Moreover, the TGI stood at 32 µM in experiment [5], 20.2 µM in experiment [6] and 16.7 µM in [7].

Take `OCC12C3C4C1C1C2C3C41CO` (stereo not given): the TGI in [8], in experiment [1], in experiment [2], in experiment [10], in [3] and in experiment [4] was above 100 µM each time. Further, the TGI in experiment [5] and in [7] was above 100 µM throughout.

Turning to `CCCCCCCC/C=C\CCCCCCCC(=O)NCCN(CCN)C(=O)CCCCCCC/C=C\CCCCCCCC`, the TGI in [8], in [1], in experiment [9], in experiment [10], in experiment [3] and in [4] was above 100 µM each time. In addition, the TGI in experiment [5] and in [7] was above 100 µM throughout.

In the case of `COc1ccc(C(c2c(O)c3ccccc3n(C)c2=O)c2c(O)c3ccccc3n(C)c2=O)cc1`, the TGI in [8], in experiment [2], in experiment [9], in experiment [10], in experiment [3] and in experiment [4] was above 100 µM throughout. The TGI in experiment [5], in experiment [6] and in experiment [7] was above 100 µM throughout.

For `Nc1c(C(=O)Nc2ccccc2Cl)sc2nc3c(cc12)CCCCCC3`, the GI50 in experiment [8] is 4.54 µM; in [9], 1.95 µM; in experiment [3] it was 0.541 µM; in experiment [4] it was 2.25 µM; in experiment [5] it was 3.32 µM; in experiment [6], 1.57 µM. Besides, the GI50 in [7] is 2.19 µM. The TGI in experiment [8] was 73.2 µM; in [9] it was 6.6 µM; in [3], above 100 µM; in experiment [4] it was 95.1 µM; in experiment [5], 13.9 µM; in experiment [6], 3.35 µM. The molecule further gave a TGI in experiment [7] of 5.01 µM.

For the molecule `COc1cc(C(=O)c2cc3c(cc2C)OCO3)cc(OC)c1OC`, the GI50 was 0.125 µM in experiment [8]; 0.0434 µM in experiment [1]; 0.0682 µM in experiment [9]; 0.371 µM in experiment [10]; 0.051 µM in [3]; 0.0671 µM in [4]. Further, the results for the GI50 in [5], in experiment [6] and in experiment [7] were 0.124 µM, 0.0429 µM and 0.624 µM, respectively. Besides, the TGI in experiment [8], in [1], in experiment [9], in [10], in experiment [3] and in [4] was above 100 µM each time. Moreover, the TGI in experiment [5] is above 33.2 µM; in [6], above 100 µM; in experiment [7] it was above 100 µM.

With `O=C(Nc1c(O)[nH]c(=S)[nH]c1=O)c1ccc2ccccc2n1`, the TGI in [8], in experiment [1], in experiment [9], in experiment [10], in experiment [3] and in experiment [4] was above 100 µM in each case. In addition, the TGI in experiment [5], in experiment [6] and in experiment [7] was above 100 µM each time.

Take `COc1ccc(-c2nc(-c3nc4ccc(OC)cc4[nH]3)cc3c2[nH]c2ccccc23)cc1`: the GI50 was 1.92 µM in experiment [8]; 0.887 µM in experiment [1]; 2.48 µM in experiment [9]; 2.83 µM in experiment [10]; 1.52 µM in experiment [3]; 3.34 µM in [4]. Moreover, the GI50 was 2.05 µM in [5] and 1.66 µM in experiment [7]. Further, the TGI in [8], in experiment [1], in [9], in experiment [10], in experiment [3] and in experiment [4] was above 100 µM in each case. Moreover, the TGI in experiment [5] and in experiment [7] was above 100 µM in each case.
